Results from article PMC11157767 (Molecular Cancer, 2024).

Tested on: TFG-MET allograft tumors
Test: RNA-sequencing, differential expression and GSEA of TFG-MET allograft tumors
Assay type: in vivo, mouse
Conditions: CAP v Veh
Method: Error bars display standard error of mean, statistical significance was determined using t-test analysis. (****;p<0.0001, ***;p<0.001, **;p<0.01, *;p<0.05). […] Each dot represents an individual replicate. Error bars display standard error of the mean.
Each dot represents one gene.

## CNC(=O)c1ccc(-c2cnc3ncc(Cc4ccc5ncccc5c4)n3n2)cc1F [Capmatinib]
GOMF_3_5_DNA_HELICASE_ACTIVITY
  ES: -0.6834
GOMF_3_5_DNA_HELICASE_ACTIVITY, padj 0.00671103
  NES: -1.906
GOMF_ACTIVATING_TRANSCRIPTION_FACTOR_BINDING
  ES: -0.4071
GOMF_ACTIVATING_TRANSCRIPTION_FACTOR_BINDING, padj 0.0419799
  NES: -1.5828
GOMF_ALPHA_ACTININ_BINDING
  ES: -0.5133
GOMF_ALPHA_ACTININ_BINDING, padj 0.0520078
  NES: -1.603
GOMF_AMYLOID_BETA_BINDING
  ES: 0.3131
GOMF_AMYLOID_BETA_BINDING, padj 0.0419799
  NES: 1.527
GOMF_ANTIOXIDANT_ACTIVITY
  ES: 0.3898
GOMF_ANTIOXIDANT_ACTIVITY, padj 0.0072907
  NES: 1.809
GOMF_ATPASE_COUPLED_ION_TRANSMEMBRANE_TRANSPORTER_ACTIVITY
  ES: 0.474
GOMF_ATPASE_COUPLED_ION_TRANSMEMBRANE_TRANSPORTER_ACTIVITY, padj 0.00463
  NES: 2.003
GOMF_BETA_2_MICROGLOBULIN_BINDING
  ES: 0.5632
GOMF_BETA_2_MICROGLOBULIN_BINDING, padj 0.0448774
  NES: 1.801
GOMF_CALCIUM_DEPENDENT_PROTEIN_BINDING
  ES: 0.337
GOMF_CALCIUM_DEPENDENT_PROTEIN_BINDING, padj 0.0607303
  NES: 1.56
GOMF_CARBOHYDRATE_BINDING
  ES: 0.2512
GOMF_CARBOHYDRATE_BINDING, padj 0.0202682
  NES: 1.428
GOMF_CARBOXYLIC_ESTER_HYDROLASE_ACTIVITY
  ES: 0.3196
GOMF_CARBOXYLIC_ESTER_HYDROLASE_ACTIVITY, padj 0.00853155
  NES: 1.6126
GOMF_CATALYTIC_ACTIVITY_ACTING_ON_A_TRNA
  ES: -0.5808
GOMF_CATALYTIC_ACTIVITY_ACTING_ON_A_TRNA, padj 7.15005e-11
  NES: -2.431
GOMF_CATALYTIC_ACTIVITY_ACTING_ON_DNA
  ES: -0.5359
GOMF_CATALYTIC_ACTIVITY_ACTING_ON_DNA, padj 5.51748e-13
  NES: -2.374
GOMF_CATION_CATION_ANTIPORTER_ACTIVITY
  ES: 0.4863
GOMF_CATION_CATION_ANTIPORTER_ACTIVITY, padj 0.0546567
  NES: 1.7655
GOMF_CATION_TRANSMEMBRANE_TRANSPORTER_ACTIVITY
  ES: 0.1933
GOMF_CATION_TRANSMEMBRANE_TRANSPORTER_ACTIVITY, padj 0.0600708
  NES: 1.207
GOMF_COA_HYDROLASE_ACTIVITY
  ES: 0.52
GOMF_COA_HYDROLASE_ACTIVITY, padj 0.0696276
  NES: 1.759
GOMF_CORE_PROMOTER_SEQUENCE_SPECIFIC_DNA_BINDING
  ES: -0.4562
GOMF_CORE_PROMOTER_SEQUENCE_SPECIFIC_DNA_BINDING, padj 0.072132
  NES: -1.575
GOMF_CYTOKINE_BINDING
  ES: 0.2766
GOMF_CYTOKINE_BINDING, padj 0.0484841
  NES: 1.402
GOMF_CYTOKINE_RECEPTOR_ACTIVITY
  ES: 0.3569
GOMF_CYTOKINE_RECEPTOR_ACTIVITY, padj 0.00978552
  NES: 1.74
GOMF_DELAYED_RECTIFIER_POTASSIUM_CHANNEL_ACTIVITY
  ES: 0.4424
GOMF_DELAYED_RECTIFIER_POTASSIUM_CHANNEL_ACTIVITY, padj 0.0600708
  NES: 1.691
GOMF_DEMETHYLASE_ACTIVITY
  ES: -0.5386
GOMF_DEMETHYLASE_ACTIVITY, padj 0.0072907
  NES: -1.838
GOMF_DNA_BINDING_TRANSCRIPTION_ACTIVATOR_ACTIVITY
  ES: -0.3206
GOMF_DNA_BINDING_TRANSCRIPTION_ACTIVATOR_ACTIVITY, padj 0.00368803
  NES: -1.494
GOMF_DNA_BINDING_TRANSCRIPTION_REPRESSOR_ACTIVITY
  ES: -0.3134
GOMF_DNA_BINDING_TRANSCRIPTION_REPRESSOR_ACTIVITY, padj 0.0381242
  NES: -1.423
GOMF_DNA_HELICASE_ACTIVITY
  ES: -0.6746
GOMF_DNA_HELICASE_ACTIVITY, padj 6.80206e-12
  NES: -2.633
GOMF_DNA_POLYMERASE_ACTIVITY
  ES: -0.499
GOMF_DNA_POLYMERASE_ACTIVITY, padj 0.057276
  NES: -1.624
GOMF_DNA_POLYMERASE_BINDING
  ES: -0.6079
GOMF_DNA_POLYMERASE_BINDING, padj 0.0319688
  NES: -1.763
GOMF_DOUBLE_STRANDED_RNA_BINDING
  ES: -0.4239
GOMF_DOUBLE_STRANDED_RNA_BINDING, padj 0.0120781
  NES: -1.66
GOMF_ENDONUCLEASE_ACTIVITY
  ES: -0.4125
GOMF_ENDONUCLEASE_ACTIVITY, padj 0.00509455
  NES: -1.716
GOMF_ENDONUCLEASE_ACTIVITY_ACTIVE_WITH_EITHER_RIBO_OR_DEOXYRIBONUCLEIC_ACIDS_AND_PRODUCING_5_PHOSPHOMONOESTERS
  ES: -0.5195
GOMF_ENDONUCLEASE_ACTIVITY_ACTIVE_WITH_EITHER_RIBO_OR_DEOXYRIBONUCLEIC_ACIDS_AND_PRODUCING_5_PHOSPHOMONOESTERS, padj 0.00950889
  NES: -1.794
GOMF_ENDOPEPTIDASE_REGULATOR_ACTIVITY
  ES: 0.2991
GOMF_ENDOPEPTIDASE_REGULATOR_ACTIVITY, padj 0.0132396
  NES: 1.521
GOMF_ENDORIBONUCLEASE_ACTIVITY
  ES: -0.4748
GOMF_ENDORIBONUCLEASE_ACTIVITY, padj 0.00565255
  NES: -1.786
GOMF_ENDORIBONUCLEASE_ACTIVITY_PRODUCING_5_PHOSPHOMONOESTERS
  ES: -0.5711
GOMF_ENDORIBONUCLEASE_ACTIVITY_PRODUCING_5_PHOSPHOMONOESTERS, padj 0.0162496
  NES: -1.81
GOMF_FATTY_ACID_BINDING
  ES: 0.4525
GOMF_FATTY_ACID_BINDING, padj 0.0492693
  NES: 1.741
GOMF_FOUR_WAY_JUNCTION_DNA_BINDING, padj 0.0177962
  NES: -1.783
GOMF_GLUTATHIONE_PEROXIDASE_ACTIVITY, padj 0.00790825
  NES: 2.092
GOMF_GLYCOLIPID_BINDING
  ES: 0.506
GOMF_GLYCOLIPID_BINDING, padj 0.0202682
  NES: 1.835
GOMF_GUANYL_NUCLEOTIDE_BINDING
  ES: -0.2896
GOMF_GUANYL_NUCLEOTIDE_BINDING, padj 0.0419799
  NES: -1.351
GOMF_HEAT_SHOCK_PROTEIN_BINDING
  ES: -0.3614
GOMF_HEAT_SHOCK_PROTEIN_BINDING, padj 0.0624118
  NES: -1.511
GOMF_HEME_COPPER_TERMINAL_OXIDASE_ACTIVITY
  ES: 0.566
GOMF_HEME_COPPER_TERMINAL_OXIDASE_ACTIVITY, padj 0.00343436
  NES: 2.052
GOMF_HISTONE_DEACETYLASE_BINDING
  ES: -0.365
GOMF_HISTONE_DEACETYLASE_BINDING, padj 0.0452435
  NES: -1.507
GOMF_HYDROLASE_ACTIVITY_ACTING_ON_ACID_ANHYDRIDES
  ES: -0.3454
GOMF_HYDROLASE_ACTIVITY_ACTING_ON_CARBON_NITROGEN_BUT_NOT_PEPTIDE_BONDS_IN_CYCLIC_AMIDINES
  ES: -0.5898
GOMF_HYDROLASE_ACTIVITY_ACTING_ON_CARBON_NITROGEN_BUT_NOT_PEPTIDE_BONDS_IN_CYCLIC_AMIDINES, padj 0.00629559
  NES: -1.842
GOMF_ION_TRANSMEMBRANE_TRANSPORTER_ACTIVITY
  ES: 0.1805
GOMF_ION_TRANSMEMBRANE_TRANSPORTER_ACTIVITY, padj 0.0667134
  NES: 1.183
GOMF_ISOMERASE_ACTIVITY
  ES: -0.3436
GOMF_ISOMERASE_ACTIVITY, padj 0.0410059
  NES: -1.472
GOMF_KINASE_BINDING
  ES: -0.2712
GOMF_KINASE_BINDING, padj 0.019253
  NES: -1.314
GOMF_KINASE_INHIBITOR_ACTIVITY
  ES: -0.4003
GOMF_KINASE_REGULATOR_ACTIVITY
  ES: -0.3132
GOMF_KINASE_REGULATOR_ACTIVITY, padj 0.0543588
  NES: -1.396
GOMF_LIGASE_ACTIVITY_FORMING_CARBON_NITROGEN_BONDS
  ES: -0.4994
GOMF_LIGASE_ACTIVITY_FORMING_CARBON_NITROGEN_BONDS, padj 0.0116225
  NES: -1.777
GOMF_LYSINE_ACETYLATED_HISTONE_BINDING
  ES: -0.5519
GOMF_LYSINE_ACETYLATED_HISTONE_BINDING, padj 0.0564834
  NES: -1.63
GOMF_LYSOPHOSPHOLIPASE_ACTIVITY
  ES: 0.4699
GOMF_LYSOPHOSPHOLIPASE_ACTIVITY, padj 0.0722653
  NES: 1.706
GOMF_MAGNESIUM_ION_BINDING
  ES: -0.3426
GOMF_MAGNESIUM_ION_BINDING, padj 0.0134631
  NES: -1.518
GOMF_MAP_KINASE_KINASE_KINASE_ACTIVITY, padj 0.0759934
  NES: -1.58
GOMF_METALLOENDOPEPTIDASE_ACTIVITY
  ES: -0.4444
GOMF_METALLOENDOPEPTIDASE_ACTIVITY, padj 0.00334688
  NES: -1.785
GOMF_METALLOPEPTIDASE_ACTIVITY
  ES: -0.3671
GOMF_METALLOPEPTIDASE_ACTIVITY, padj 0.0120781
  NES: -1.581
GOMF_METHYL_CPG_BINDING
  ES: -0.6439
